# *1 amine or outer side, *2 acyl side, *3 side chain or, on linkers, in order; H or OH if unused. Where a SMILES comes first, the peptide text is derived from it. Side-chain parts run from the residue outwards. [ ]: non-standard residue; d: D form. The star is where a group is joined. γGlu = O=C(O)[C@H](CCC(=O)[*:2])N[*:1]; Desaminohistidyl = O=C(CCc1c[nH]cn1)*; Aib = CC(C)(N)C(=O)O
# Target: T1, human glucagon receptor (Homo sapiens, UniProt P47871)
# T1 construct: expressed in transfected cells; host or cells: BHK cells, clone BHK hGCGR A3*25; isolated membranes
# Assay: Assay (II)(b): glucagon receptor binding, 125I-glucagon displacement on isolated membranes (SPA)
# Conditions: displacement of 125I-glucagon, membranes of BHK cells with human glucagon receptor, 2 h at 25° C.; read-out: IC50 hGlucagonR
# Description: (b) Glucagon Receptor Binding
# The purpose of this assay was to test the in vitro receptor binding activity of the glucagon derivatives of the invention. The receptor binding activity is a measure of affinity of a derivative for the human glucagon receptor.
# The receptor binding of each compound to the human glucagon receptor was measured in a displacement binding assay. In this type of assay a labelled ligand (in this case 125I-glucagon) is bound to the receptor. Each derivative is added in a series of concentrations to isolated membranes containing the human glucagon receptor and displacement of the labelled ligand is monitored. The receptor binding is reported as the concentration at which half of the labelled ligand is displaced from the receptor, the IC50 value.
# HME buffer consisted of 25 mM HEPES, 2 mM MgCl2 and 1 mM EDTA, and pH was adjusted to 7.4. Binding buffer consisted of 50 mM HEPES supplemented with 5 mM MgCl2, 1 mM CaCl2, 0.02% Tween 20 and 0.1% Ovalbumin, and pH was adjusted to 7.4.
# The cells used in this assay (clone BHK hGCGR A3*25) were BHK cells stable transfected with an expression plasmid containing the cDNA encoding the human glucagon receptor.
# The cells were grown at 5% CO2 in DMEM, 10% fetal calf serum, 1% Pen/Strep (Penicillin/Streptomycin) and 1.0 mg/mL of the selection marker G418. To make a membrane preparation the cells were grown to approximately 80% confluence. The cells were washed twice in phosphate-buffered saline and harvested. The cells were pelleted using a brief centrifugation and the cell pellet was kept on ice. The cells were lysed by adding approx. 5 mL HME buffer, mix by pipetting and snap freeze in liquid nitrogen. The cell lysate was quickly thawed and HME buffer added to 10 mL. The cell pellet was homogenised with an ULTRA-THURRAX dispersing instrument for 20-30 seconds. The homogenate was centrifuged at 20,000×G, 4° C. for 10 minutes. The pellet was resuspended (homogenised) in 1-2 mL HME buffer. The protein concentration was determined. The membranes were aliquoted and snap frozen in liquid nitrogen and stored at minus 80° C.
# • 1. For the receptor binding assay 50 μl of the assay buffer was added to each well of an assay plate. • 2. Test compounds were serially diluted to give the following concentrations: 8×10 EE-7 M, 8×10 EE-8 M, 8×10 EE-9 M, 8×10 EE-10 M, 8×10 EE-11 M, 8×10 EE-12 M and 8×10 EE-13 M. Twenty-five μl were added to appropriate wells in the assay plate. • 3. Cell membrane aliquots were thawed and diluted to their working concentration. Fifty μl were added to each well in the assay plate. • 4. WGA SPA beads were suspended in assay buffer at 20 mg/mL. The suspension was diluted to 10 mg/mL in assay buffer just prior to addition to the assay plate. Fifty μl were added to each well in the assay plate. • 5. The incubation was started by adding 25 μl of 480 pM solution of [125I]-glucagon to each well of the assay plate. A 25 μl aliquot was reserved for measuring total counts/well. • 6. The assay plate was incubated for 2 h at 25° C. • 7. The assay plate was centrifuged for 10 min at 1500 rpm. • 8. The assay plate was read in a Packard TopCount NXT instrument. Calculations
# The data from the TopCount instrument were transferred to GraphPad Prism software. The software averaged the values for the replicates and performed a non-linear regression.
# T1 sequence (P47871 26-477): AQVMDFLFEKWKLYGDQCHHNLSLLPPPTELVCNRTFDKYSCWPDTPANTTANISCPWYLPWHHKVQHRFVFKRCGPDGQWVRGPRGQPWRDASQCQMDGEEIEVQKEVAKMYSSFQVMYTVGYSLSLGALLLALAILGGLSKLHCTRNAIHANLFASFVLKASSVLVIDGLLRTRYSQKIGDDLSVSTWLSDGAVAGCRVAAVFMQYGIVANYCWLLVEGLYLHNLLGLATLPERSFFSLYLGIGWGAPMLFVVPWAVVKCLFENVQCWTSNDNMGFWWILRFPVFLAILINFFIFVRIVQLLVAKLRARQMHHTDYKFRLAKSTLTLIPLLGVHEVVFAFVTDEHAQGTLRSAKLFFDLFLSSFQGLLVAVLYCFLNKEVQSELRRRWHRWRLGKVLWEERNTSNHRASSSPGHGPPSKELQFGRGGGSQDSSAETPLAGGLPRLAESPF
row,SMILES,IC50
1,"CC(=O)N[C@@H](CCC(=O)N[C@@H](CCC(=O)N[C@@H](CCC(=O)N[C@@H](CCC(=O)NCCCC[C@H](NC(=O)[C@@H](NC(=O)[C@H](Cc1ccccc1)NC(=O)[C@H](CC(=O)O)NC(=O)[C@H](CCC(N)=O)NC(=O)[C@H](C)NC(=O)[C@H](CCCNC(=N)N)NC(=O)[C@H](CCCNC(=N)N)NC(=O)[C@H](CC(C)C)NC(=O)[C@H](CC(=O)O)NC(=O)[C@H](CC(C)C)NC(=O)[C@H](Cc1ccc(O)cc1)NC(=O)[C@H](CCCCN)NC(=O)[C@H](CO)NC(=O)[C@H](Cc1ccc(O)cc1)NC(=O)[C@H](CC(=O)O)NC(=O)[C@H](CO)NC(=O)[C@@H](NC(=O)[C@H](Cc1ccccc1)NC(=O)[C@@H](NC(=O)CNC(=O)[C@H](Cc1c[nH]cn1)NC(=O)C(C)(C)NC(=O)CCc1c[nH]cn1)[C@@H](C)O)[C@@H](C)O)C(C)C)C(=O)N[C@@H](Cc1c[nH]c2ccccc12)C(=O)N[C@@H](CC(C)C)C(=O)N[C@@H](CC(C)C)C(=O)N[C@@H](CO)C(=O)N[C@H](C(=O)O)[C@@H](C)O)C(=O)O)C(=O)O)C(=O)O)C(=O)O [Example 1, N^ϵ24-[(4S)-4-[[(4S)-4-[[(4S)-4-[[(4S)-4-acetamido-4-carboxybutanoyl]amino]-4-carboxybutanoyl]amino]-4-carboxybutanoyl]amino]-4-carboxybutanoyl]-[Imp1, Aib2, His3, Leu16, Lys24, Leu27, Ser28]-Glucagon] (Desaminohistidyl-[Aib]HGTFTSDYSKYLDLRRAQDFVK([γGlu-γGlu-γGlu-γGlu-Ac])WLLST-OH)",0.2 nM
2,"CC(=O)N[C@@H](CCC(=O)N[C@@H](CCC(=O)N[C@@H](CCC(=O)N[C@@H](CCC(=O)NCCCC[C@H](NC(=O)[C@H](CC(C)C)NC(=O)[C@H](CC(C)C)NC(=O)[C@H](Cc1c[nH]c2ccccc12)NC(=O)[C@H](C)NC(=O)[C@@H](NC(=O)[C@H](Cc1ccccc1)NC(=O)[C@H](CC(=O)O)NC(=O)[C@H](CCC(N)=O)NC(=O)[C@H](C)NC(=O)[C@H](CCCNC(=N)N)NC(=O)[C@H](CCCNC(=N)N)NC(=O)[C@H](CO)NC(=O)[C@H](CCC(=O)O)NC(=O)[C@H](CC(C)C)NC(=O)[C@H](Cc1ccc(O)cc1)NC(=O)[C@H](CCCCN)NC(=O)[C@H](CO)NC(=O)[C@H](Cc1ccc(O)cc1)NC(=O)[C@H](CC(=O)O)NC(=O)[C@H](CO)NC(=O)[C@@H](NC(=O)[C@H](Cc1ccccc1)NC(=O)[C@@H](NC(=O)CNC(=O)[C@H](Cc1c[nH]cn1)NC(=O)C(C)(C)NC(=O)CCc1c[nH]cn1)[C@@H](C)O)[C@@H](C)O)C(C)C)C(=O)N[C@H](C(=O)O)[C@@H](C)O)C(=O)O)C(=O)O)C(=O)O)C(=O)O [Example 4, N^ϵ28-[(4S)-4-[[(4S)-4-[[(4S)-4-[[(4S)-4-acetamido-4-carboxybutanoyl]amino]-4-carboxybutanoyl]amino]-4-carboxybutanoyl]amino]-4-carboxybutanoyl]-[Imp1, Aib2, His3, Glu15, Ala24, Leu27, Lys28]-Glucagon] (Desaminohistidyl-[Aib]HGTFTSDYSKYLESRRAQDFVAWLLK([γGlu-γGlu-γGlu-γGlu-Ac])T-OH)",1.8 nM
3,"CC(=O)N[C@@H](CCC(=O)N[C@@H](CCC(=O)N[C@@H](CCC(=O)N[C@@H](CCC(=O)NCCCC[C@H](NC(=O)[C@@H](NC(=O)[C@H](Cc1ccccc1)NC(=O)[C@H](CCC(=O)O)NC(=O)[C@H](CCC(N)=O)NC(=O)[C@H](C)NC(=O)[C@H](CCCNC(=N)N)NC(=O)[C@H](CCCNC(=N)N)NC(=O)[C@H](CC(C)C)NC(=O)[C@H](CC(=O)O)NC(=O)[C@H](CC(C)C)NC(=O)[C@H](Cc1ccc(O)cc1)NC(=O)[C@H](CCCCN)NC(=O)[C@H](CO)NC(=O)[C@H](Cc1ccc(O)cc1)NC(=O)[C@H](CC(=O)O)NC(=O)[C@H](CO)NC(=O)[C@@H](NC(=O)[C@H](Cc1ccccc1)NC(=O)[C@@H](NC(=O)CNC(=O)[C@H](Cc1c[nH]cn1)NC(=O)[C@H](CO)NC(=O)CCc1c[nH]cn1)[C@@H](C)O)[C@@H](C)O)C(C)C)C(=O)N[C@@H](Cc1c[nH]c2ccccc12)C(=O)N[C@@H](CC(C)C)C(=O)N[C@@H](CC(C)C)C(=O)N[C@@H](CO)C(=O)N[C@H](C(=O)O)[C@@H](C)O)C(=O)O)C(=O)O)C(=O)O)C(=O)O [Example 8, N^ϵ24-[(4S)-4-[[(4S)-4-[[(4S)-4-[[(4S)-4-acetamido-4-carboxybutanoyl]amino]-4-carboxybutanoyl]amino]-4-carboxybutanoyl]amino]-4-carboxybutanoyl]-[Imp1, His3, Leu16, Glu21, Lys24, Leu27, Ser28]-Glucagon] (Desaminohistidyl-SHGTFTSDYSKYLDLRRAQEFVK([γGlu-γGlu-γGlu-γGlu-Ac])WLLST-OH)",0.2 nM
4,"CC(=O)N[C@@H](CCC(=O)N[C@@H](CCC(=O)N[C@@H](CCC(=O)N[C@@H](CCC(=O)NCCCC[C@H](NC(=O)[C@@H](NC(=O)[C@H](Cc1ccccc1)NC(=O)[C@H](CC(=O)O)NC(=O)[C@H](CCC(N)=O)NC(=O)[C@H](C)NC(=O)[C@H](CCCNC(=N)N)NC(=O)[C@H](CCCNC(=N)N)NC(=O)[C@@H](NC(=O)[C@H](CC(=O)O)NC(=O)[C@H](CC(C)C)NC(=O)[C@H](Cc1ccc(O)cc1)NC(=O)[C@H](CCCCN)NC(=O)[C@H](CO)NC(=O)[C@H](Cc1ccc(O)cc1)NC(=O)[C@H](CC(=O)O)NC(=O)[C@H](CO)NC(=O)[C@@H](NC(=O)[C@H](Cc1ccccc1)NC(=O)[C@@H](NC(=O)CNC(=O)[C@H](Cc1c[nH]cn1)NC(=O)C(C)(C)NC(=O)CCc1c[nH]cn1)[C@@H](C)O)[C@@H](C)O)C(C)C)C(C)C)C(=O)N[C@@H](Cc1c[nH]c2ccccc12)C(=O)N[C@@H](CC(C)C)C(=O)N[C@@H](CC(C)C)C(=O)N[C@@H](CO)C(=O)N[C@H](C(=O)O)[C@@H](C)O)C(=O)O)C(=O)O)C(=O)O)C(=O)O [Example 10, N^ϵ24-[(4S)-4-[[(4S)-4-[[(4S)-4-[[(4S)-4-acetamido-4-carboxybutanoyl]amino]-4-carboxybutanoyl]amino]-4-carboxybutanoyl]amino]-4-carboxybutanoyl]-[Imp1, Aib2, His3, Val16, Lys24, Leu27, Ser28]-Glucagon] (Desaminohistidyl-[Aib]HGTFTSDYSKYLDVRRAQDFVK([γGlu-γGlu-γGlu-γGlu-Ac])WLLST-OH)",0.5 nM
